Where a SMILES comes first, the peptide text is derived from it.
Tests used:
Type in all cases: cell-based, human
MMP-2 = experiment: Zymography in the presence of gelatine, conditioned medium of UACC-903 cells; conditions: cyclopeptide 5 to 20 μM, linear heptapeptide 20 μM
Description: (§1) FIG. 11: Effect of YSNSG (SEQ ID NO: 3) cyclopeptide on secretion of MMP-2 and MMP-9. The secretion of MMP-2 and MMP-9 was analyzed by zymography in the presence of gelatine (A), on a medium conditioned by UACC-903 cells in the absence of peptide (negative control, white bar), on cells treated with linear heptapeptide CNYYSNS (SEQ ID NO: 5) (20 μM) (positive control, black bar) or cells treated with concentrations of 5 μM to 20 μM of cyclopeptide (grey bars) YSNSG (SEQ ID NO: 3). The conditioned medium was collected and analyzed as described in the method. Quantification was carried out using Bio 1D software. B: quantification of proMMP2; C: quantification of proMMP-9 (A.U.: arbitrary unit);
(§2) The expression of MMP-2 and MMP-9 in a conditioned medium of UACC-903 cells, treated or not treated with synthetic peptides, was analyzed by zymography in the presence of gelatine as described above (Pasco et al, 2000(a)). The secretion of TIMP-2 was analyzed in a conditioned medium of UACC-903 cells by reverse zymography in the presence of gelatine, as described above (Pascal et al, 2000(a)).

MMP-9 = experiment: as above; conditions: cyclopeptide 5 to 20 μM, linear heptapeptide 20 μM
Description: as §1, §2

TIMP-1 = experiment: Reverse zymography of TIMP secretion, UACC-903 cells; conditions: conditioned culture medium
Description: (§3) FIG. 13: Effect of YSNSG (SEQ ID NO: 3) cyclopeptide on secretion of TIMP. The secretion of 3 tissue inhibitors of metalloproteinases (TIMP) was analyzed by reverse zymography (A) in a medium conditioned by control UACC-903 cells in the absence of peptide (negative control, white bar), on cells treated with the linear heptapeptide CNYYSNS (SEQ ID NO: 5) (20 μM) (positive control, black bar) or treated with cyclopeptide YSNSG (SEQ ID NO: 3) at a concentration from 5 μM to 20 μM (grey bars). The conditioned medium was recovered and analyzed as described in the methods.
as §2

TIMP-2 = experiment: as above; conditions: cyclopeptide 5 to 20 μM, linear heptapeptide 20 μM
Description: as §3, §2

TIMP-3 = experiment: as above; conditions: conditioned culture medium
Description: as §3, §2

t-PA = experiment: Zymography in the presence of gelatine and plasminogen, UACC-903 cells; conditions: cyclopeptide 5 to 20 μM, linear heptapeptide 20 μM
Description: (§4) FIG. 14: Effect of YSNSG (SEQ ID NO: 3) cyclopeptide on the secretion of plasminogen activators. The secretion of u-PA (urokinase type plasminogen activator) and t-PA (tissue plasminogen activator) was analyzed by zymography in the presence of gelatine and plasminogen (A) in a medium conditioned by control UACC-903 cells in the absence of peptide (negative control, white bar), on cells treated with linear heptapeptide CNYYSNS (SEQ ID NO: 5) (20 μM) (positive control, black bar) or treated with the cyclopeptide YSNSG (SEQ ID NO: 3) at a concentration varying from 5 μM to 20 μM (grey bars). The conditioned medium was recovered and analyzed as described in the methods.
(§5) To determine the plasminogen activities, conditioned media of UACC-903 cells were analyzed by polyacrylamide gel electrophoresis in the presence of SDS and containing 1 mg/ml of gelatine and 10 μg/ml of plasminogen. After electrophoresis, the gels were incubated overnight at ambient temperature in a 100 mM glycine, 5 mM EDTA, pH 8.0 buffer.

u-PA = experiment: as above; conditions: cyclopeptide 5 to 20 μM, linear heptapeptide 20 μM
Description: as §4, §5

u-PAR = experiment: Western blot of u-PAR, HUVEC cells; conditions: 20 μM
Description: FIG. 21: Effect of YSNSG (SEQ ID NO: 3) cyclopeptide on the expression of the u-PA receptor: u-PAR by HUVEC cells. The secretion of u-PAR was analyzed by Western blot (A) in a medium conditioned by HUVEC cells in the absence (control) or in the presence of 20 μM of the cyclopeptide YSNSG (SEQ ID NO: 3). Quantification was carried out using Bio 1D software (B);
The samples underwent 10% polyacrylamide gel electrophoresis in the presence of 0.1% SDS then were transferred onto Immobilon-P membranes (Millipore, St Quentin en Yvelines, France). The membranes were saturated with 5% freeze dried skimmed milk, Tween 20 0.1% in a 50 mM Tris-HCl, 150 mM NaCl buffer, pH 7.5 (TBS) for 2 hours at ambient temperature. The membranes were then incubated overnight at 4° C. with anti-MMP-14, anti-PAI-1 and anti-u-PAR antibodies then incubated for one hour at ambient temperature with a secondary antibody (anti-IgG) conjugated with peroxidase. The immune complexes were visualized with an ECL chemoluminescence detection kit.

phospho-FAK = experiment: Phospho-FAK immunolabelling, HUVEC cells; conditions: 20 μM, 48 h
Description: FIG. 22: Effect of YSNSG (SEQ ID NO: 3) cyclopeptide on the organization of the cytoskeleton of HUVEC cells. The cells were cultivated on glass slides in the absence (control) or in the presence of 20 μM of YSNSG (SEQ ID NO: 3) cyclopeptide. After 48 h of incubation, the cells were fixed, permeabilized, incubated with phalloidin (A) or with an anti-Phospho-FAK antibody (B) then with Hoechst-33342. The slides were observed under a confocal microscope;
The cells were seeded onto sterile glass slides placed in 24-well plates (2×10^4 cells/well) in a suitable medium containing 5% serum in the presence or absence of YSNSG (SEQ ID NO: 3) cyclopeptide. After 24 and 48 hours incubation, the cells were fixed for 15 minutes in methanol. Three washes of 5 minutes in TBS-T were carried out, then the cells were incubated for 30 minutes at ambient temperature in a saturation solution (TBS-T containing 3% BSA). The cells were then incubated for 2 hours at ambient temperature in the presence of primary antibody diluted to 1/100 in TBS-T containing 3% BSA.

Row | Compound | secretion of MMP-2 (MMP-2) | secretion of MMP-9 (MMP-9) | Secretion of TIMP-1 (TIMP-1) | secretion of TIMP-2 (TIMP-2) | Secretion of TIMP-3 (TIMP-3) | secretion of t-PA (t-PA) | secretion of u-PA (u-PA) | reduction in the production of u-PAR (u-PAR) | expression of the phosphorylated form of focal adhesion kinase (phospho-FAK) (phospho-FAK)
1 | CNYYSNS (Synthetic linear heptapeptide) [linear peptide NC1 [α3(IV) 185-191], the 7 N-terminal amino acids of the 185-203 domain; positive control, reference compound] | No significant change | No significant change | not modified | dose-dependent increase | not modified | reduction observed | reduction observed | – | –
2 | NC(=O)CC1NC(=O)C(CO)NC(=O)C(Cc2ccc(O)cc2)NC(=O)CNC(=O)C(CO)NC1=O (stereo not shown) [cyclopeptide YSNSG, cyclopeptide YSNSG (SEQ ID NO: 3)] (cyclo(GYSNS); configuration not given here) | No significant change | No significant change | not modified | dose-dependent increase | not modified | dose-dependent reduction | dose-dependent reduction | −49% | reduction
